Assays:
[1] = relative to the natural ligand Lys-desArg-bradykinin; cited from earlier work
[2] = tested on: 3-vessel occlusion (3-VO) cerebral arteriogenesis model in rat; assay: 3-vessel occlusion (3-VO) cerebral arteriogenesis model: collateral growth / diameter of the posterior cerebral artery (postmortem latex perfusion); assay type: in vivo; conditions: rat 3-VO model, antagonist treatment, 3 weeks post 3-VO (Figure 5)
Procedure: Pharmacological modulation of arteriogenesis was analysed using a 3 vessel occlusion (3-VO) model for cerebral arteriogenesis in the rat (Occlusion of both vertebral arteries and one carotid artery). Upon occlusion of three of four blood-supplying arteries to the brain, blood flow is redistributed by the recruitment of collateral pathways such as the posterior cerebral artery to supply the hypoperfusion area with blood. The 3-VO model in the rat has been established since 2003 and is acknowledged as a hypoperfusion model for testing cerebral arteriogenesis (Busch, Buschmann et al. 2003). By using the 3-VO model, relevant therapeutic stimulation of arteriogenesis was shown for instance by the application of GM-CSF (Buschmann, Circulation 2003).
Either by inhibition or stimulation of the bradykinin receptor signalling pathways, arteriogenesis was determined and physiological parameters of the brain were tested.
The characterisation of arteriogenesis was carried out via measurement of the artery or blood vessel diameter (posterior cerebral artery - PCA) in addition to via a measurement of the cerebrovascular reactivity (perfusion reserves in the brain). Cerebrovascular anatomy was studied after maximal vasodilation by a modification of the postmortem latex perfusion method of Maeda et al (Maeda, Hata et al. 1998) .

| Compound | susceptibility toward proteolysis [1] | arteriogenesis (collateral growth) [2] |
| --- | --- | --- |
| CNCC(=O)N[C@@H](CCCNC(=N)N)C(=O)N1CCC[C@H]1C(=O)N1CCC[C@H]1C(=O)NCC(=O)N[C@@H](Cc1ccccc1)C(=O)N[C@@H](CO)C(=O)N1CCC[C@H]1C(=O)N[C@H](Cc1ccccc1)C(=O)O [R838, Sar-[D-Phe]des-Arg^9-bradykinin] | lower | – |
| (Des-Arg^9, Leu^8)-bradykinin [H1960] | – | inhibited |

— EP2420245A1, “Therapeutic use of agonists or antagonists of bradykinin receptor 1 or 2, for modulation collateral blood vessel growth” (MAX-DELBRÜCK-CENTRUM FÜR MOLEKULARE MEDIZIN, priority 2010, dated 2012)
